62 molecules from US20230067929A1, “HETEROCYCLIC DERIVATIVES, PHARMACEUTICAL COMPOSITIONS AND THEIR USE IN THE TREATMENT, AMELIORATION OR PREVENTION OF CANCER” (Tolremo Therapeutics AG, priority 2018, published 2023) can be followed below.

This assay concerns A375 cells. Kind of assay: A375 cell immunofluorescence assay (with 1 μM S1152 and 0.5 μM S1008), EC50. In kind it is cell-based. The conditions noted are these: 1 μM S1152 + 0.5 μM S1008, one day, ratio FL2/FL3 staining (sc-365823 antibody). Here is the method: One thousand four hundred A375 cells were seeded in each well of a 384 well microplate. One day later they were treated with 1 μM S1152 (Selleckchem) in dimethyl sulfoxide, 0.5 μM S1008 (Selleckchem) and dose ranges of invention compounds for one day in Dulbecco's Modified Eagle's Medium supplemented with 10% fetal calf serum and 2 mM (2S)-2-amino-4-carbamoylbutanoic acid. Wells were incubated with 4% polyoxymethylene (Sigma Aldrich 158127) at ambient temperature. After ten minutes, polyoxymethylene was replaced with phosphate-buffered saline. After one minute phosphate-buffered saline was replaced with 0.2% polyethylene glycol octylphenyl ether in phosphate-buffered saline. After ten minutes at ambient temperature 0.2% polyethylene glycol octylphenyl ether in phosphate-buffered saline was replaced with 1% aminoethanoic acid in phosphate-buffered saline. […] After one hour at 37° C., the solution was replaced with phosphate-buffered saline twice. Phosphate-buffered saline was replaced with 2 μg/ml A-11029 (Invitrogen) in 0.05% polyoxyethylene (20) sorbitan monolaurate in phosphate-buffered saline. […] After one hour at ambient temperature in the dark, signal in wells was measured with a Acumen Cellista. 3,8-Diamino-5-[3-(diethylmethylammonio)propyl]-6-phenylphenanthridinium diiodide-positive objects were defined in FL3 (565-600 nm) with a perimeter between 50-800 μm and a total intensity of 10000-1000000 FLU. Signal in FL2 (500-530 nm) was measured in defined objects. A normalized ratio of total ln FL2 over total ln FL3 staining was log transformed. A non-linear regression (variable slope, 4 parameters) was used to calculate EC50 values using GraphPad Prism (Version 7.0d).
`CCC(=O)N1CCCC(c2nc(Nc3cccc(F)c3)cc(-c3ccccc3)n2)C1` (centres unmarked): the EC50 (commonly the midpoint of the concentration-response curve) lay in the range of 1000 to 10000 nM.
For `CCC(=O)N1CCCC(c2nc(Nc3cccc(F)c3)cc(-c3cncnc3)n2)C1` (centres unmarked) the value was 1000 to 10000 nM; for `CCC(=O)N1CCCC(c2nc(Nc3cccc(F)c3)cc(-c3ccc(OC)nc3)n2)C1` (centres unmarked), above 10000 nM; for `CCC(=O)N1CCCC(c2nc(Nc3cccc(F)c3)cc(-c3ccc(C(F)(F)F)nc3)n2)C1` (centres unmarked), 1000 to 10000 nM.
As to `CCC(=O)N1CCCC(c2nc(Nc3cccc(F)c3)cc(-c3ccccn3)n2)C1` (centres unmarked), the EC50 is above 10000 nM.
To `CCC(=O)N1CCCC(c2nc(Cl)cc(Nc3ccccc3F)n2)C1` (centres unmarked) belongs above 10000 nM; to `CCC(=O)N1CCCC(c2nc(Nc3cccc(F)c3)cc(-c3c(C)noc3C)n2)C1` (centres unmarked), 1000 to 10000 nM; to `CCC(=O)N1CCCC(c2nc(Nc3cccc(F)c3)cc(-c3sc(CC)nc3C)n2)C1` (centres unmarked), above 10000 nM.
Regarding `CCC(=O)N1CCCC(c2nc(Nc3cccc(F)c3)cc(-c3cnc(OC(C)C)s3)n2)C1` (centres unmarked), the EC50 is above 10000 nM.
In the case of `CCC(=O)N1CCCC(c2nc(Nc3cccc(F)c3)cc(-c3ccc4ocnc4c3)n2)C1` (centres unmarked), the EC50 is above 10000 nM.
As for `CCC(=O)N1CCCC(c2nc(Nc3cccc(F)c3)cc(-c3cnn(C(C)C)c3)n2)C1` (centres unmarked), the EC50 is above 10000 nM.
To `CCC(=O)N1CCCC(c2nc(Nc3cccc(F)c3)cc(-c3cncc4ccccc34)n2)C1` (centres unmarked) belongs above 10000 nM; to `CCC(=O)N1CCCC(c2nc(Nc3cccc(F)c3)cc(-c3ccccc3C(=O)NC)n2)C1` (centres unmarked), above 10000 nM; to `COc1cncc(-c2cc(Nc3cccc(Cl)c3)nc(C3CCCN(C(C)=O)C3)n2)c1` (centres unmarked), below 1000 nM.
For `COc1cncc(-c2cc(Nc3cccc(C)c3)nc(C3CCCN(C(C)=O)C3)n2)c1` (centres unmarked) the value was below 1000 nM.
Regarding `CC(=O)N1CCCC(c2nc(Nc3cccc(C)c3)cc(-c3cncc(C)c3)n2)C1` (centres unmarked), the 50% effective concentration (EC50) was below 1000 nM.
For `CC(=O)N1CCCC(c2nc(Nc3cccc(C)c3)cc(-c3cccnc3)n2)C1` (centres unmarked) the value was below 1000 nM.
To `CC(=O)N1CCCC(c2nc(Nc3ccc(C)c(C)c3)cc(-c3cccnc3)n2)C1` (centres unmarked) belongs below 1000 nM; to `CC(=O)N1CCCC(c2nc(Nc3ccc4c(c3)CCC4)cc(-c3cccnc3)n2)C1` (centres unmarked), above 10000 nM; to `CCc1cncc(-c2cc(Nc3cccc(F)c3)nc(C3CCCN(C(C)=O)C3)n2)c1` (centres unmarked), below 1000 nM.
For `CC(=O)N1CCCC(c2nc(Nc3cccc(F)c3)cc(-c3cncc(C(F)(F)F)c3)n2)C1` (centres unmarked) the value was above 10000 nM; for `CC(=O)N1CCCC(c2nc(Nc3cccc(F)c3)cc(-c3ccncc3)n2)C1` (centres unmarked), 1000 to 10000 nM.
Turning to `CC(=O)N1CCCC(c2nc(Nc3cccc(F)c3)cc(-c3cnccc3C)n2)C1` (centres unmarked), the EC50 is 1000 to 10000 nM.
For `CC(=O)N1CCCC(c2nc(Nc3cccc(F)c3)c(C)c(-c3cccnc3)n2)C1` (centres unmarked) the value was above 10000 nM.
To `COc1ccc(-c2cc(Nc3cccc(F)c3)nc(C3CCCN(C(C)=O)C3)n2)cc1` (centres unmarked) belongs 1000 to 10000 nM.
Regarding `COc1cncc(-c2cc(Nc3ccc(C)c(F)c3)nc(C3CCCN(C(C)=O)C3)n2)c1` (centres unmarked), the EC50 lay in the range of 1000 to 10000 nM.
For `COc1cncc(-c2cc(Nc3ccccc3)nc(C3CCCN(C(C)=O)C3)n2)c1` (centres unmarked) the value was below 1000 nM; for `COc1cncc(-c2cc(Nc3ccc(Cl)cc3)nc(C3CCCN(C(C)=O)C3)n2)c1` (centres unmarked), 1000 to 10000 nM.
With `CC(=O)N1CCCC(c2nc(Nc3cccc(F)c3)cc(-c3cncnc3)n2)C1` (centres unmarked), the EC50 lay within 1000 to 10000 nM.
For `CNC(=O)c1ccc(-c2cc(Nc3cccc(F)c3)nc(C3CCCN(C(C)=O)C3)n2)cc1` (centres unmarked) the value was 1000 to 10000 nM.
Turning to `CC(=O)Nc1ccc(-c2cc(Nc3cccc(F)c3)nc(C3CCCN(C(C)=O)C3)n2)cc1` (centres unmarked), the EC50 was below 1000 nM.
To `COc1cccc(-c2cc(Nc3cccc(F)c3)nc(C3CCCN(C(C)=O)C3)n2)c1` (centres unmarked) belongs 1000 to 10000 nM; to `CC(=O)N1CCCC(c2nc(Nc3cccc(F)c3)cc(-c3cccs3)n2)C1` (centres unmarked), 1000 to 10000 nM.
As for `CC(=O)N1CCCC(c2nc(Nc3cccc(F)c3)cc(-c3cc(C)cs3)n2)C1` (centres unmarked), the EC50 was below 1000 nM.
Consider `CC(=O)N1CCCC(c2nc(Nc3cccc(F)c3)cc(-c3scc4c3OCCO4)n2)C1` (centres unmarked), for which the EC50 was below 1000 nM.
Regarding `CC(=O)N1CCCC(c2nc(Nc3cccc(F)c3)cc(-c3ccoc3)n2)C1` (centres unmarked), the EC50 lay in the range of 1000 to 10000 nM.
For `CC(=O)N1CCCC(c2nc(Nc3cccc(F)c3)cc(-c3sc(C(C)C)nc3C)n2)C1` (centres unmarked) the value was 1000 to 10000 nM; for `CC(=O)N1CCCC(c2nc(Nc3cccc(F)c3)cc(-c3c(C)noc3C)n2)C1` (centres unmarked), 1000 to 10000 nM.
To `COc1csc(-c2cc(Nc3cccc(F)c3)nc(C3CCCN(C(C)=O)C3)n2)c1` (centres unmarked) belongs below 1000 nM; to `COc1cncc(-c2cc(Nc3cccc(OCCOCCOCCNC(C)=O)c3)nc(C3CCCN(C(C)=O)C3)n2)c1` (centres unmarked), 1000 to 10000 nM.
For `COc1cncc(-c2cc(Nc3ccc(OCCOCCOCCNC(C)=O)cc3)nc(C3CCCN(C(C)=O)C3)n2)c1` (centres unmarked) the value was above 10000 nM; for `CC(=O)N1CCCC(c2nc(Nc3cccc(F)c3)cc(-c3csc4cnccc34)n2)C1` (centres unmarked), above 10000 nM.
As to `CC(=O)N1CCCC(c2nc(Nc3cccc(F)c3)cc(-c3ccnnc3)n2)C1` (centres unmarked), the EC50 was 1000 to 10000 nM.
To `CC(=O)N1CCCC(c2nc(Nc3cccc(F)c3)cc(-c3cc(Cl)cs3)n2)C1` (centres unmarked) belongs 1000 to 10000 nM; to `COc1cccc(Nc2cc(-c3cncc(OC)c3)nc(C3CCCN(C(C)=O)C3)n2)c1` (centres unmarked), 1000 to 10000 nM.
To `COc1ccc(Nc2cc(-c3cncc(OC)c3)nc(C3CCCN(C(C)=O)C3)n2)cc1` (centres unmarked) belongs 1000 to 10000 nM.
Regarding `CC(=O)N1CCCC(c2nc(Nc3cccc(F)c3)cc(-c3cccc4[nH]ccc34)n2)C1` (centres unmarked), the EC50 was below 1000 nM.
Take `CC(=O)N1CCCC(c2nc(Nc3cccc(F)c3)cc(-c3cnn(CC(F)(F)F)c3)n2)C1` (centres unmarked): the EC50 lay in the range of 1000 to 10000 nM.
For `CC(=O)N1CCCC(c2nc(Nc3cc(F)cc(F)c3)cc(-c3c(C)noc3C)n2)C1` (centres unmarked), the half-maximal effective concentration (EC50) is 1000 to 10000 nM.
In the case of `CC(=O)N1CCCC(c2nc(Nc3cccc(F)c3)cc(-c3ccc(C)nc3)n2)C1` (centres unmarked), the EC50 is 1000 to 10000 nM.
Consider `CC(=O)N1CCCC(c2nc(Nc3cc(F)cc(F)c3)cc(-c3cccnc3)n2)C1` (centres unmarked), for which the EC50 is below 1000 nM.
For `CC(=O)N1CCCC(c2nc(Nc3cccc(F)c3)cc(-c3ccc(C)nc3C)n2)C1` (centres unmarked) the value was 1000 to 10000 nM; for `CC(=O)N1CCCC(c2nc(Nc3cc(F)cc(F)c3)cc(-c3cncnc3)n2)C1` (centres unmarked), 1000 to 10000 nM.
To `CC(=O)N1CCCC(c2nc(Nc3cc(F)cc(F)c3)cc(-c3ccnnc3)n2)C1` (centres unmarked) belongs 1000 to 10000 nM; to `CC(=O)N1CCCC(c2nc(Nc3cccc(F)c3)cc(-c3cncc(N4CCOCC4)c3)n2)C1` (centres unmarked), below 1000 nM; to `COc1csc(-c2cc(Nc3cccc(C)c3)nc(C3CCCN(C(C)=O)C3)n2)c1` (centres unmarked), below 1000 nM.
With `CC(=O)N1CCCC(c2nc(Nc3cccc(C)c3)cc(-c3c(C)noc3C)n2)C1` (centres unmarked), the EC50 lay within 1000 to 10000 nM.
To `CC(=O)N1CCCC(c2nc(Nc3cccc(C)c3)cc(-c3cncc4[nH]ccc34)n2)C1` (centres unmarked) belongs below 1000 nM; to `COC(=O)c1cncc(-c2cc(Nc3cccc(F)c3)nc(C3CCCN(C(C)=O)C3)n2)c1` (centres unmarked), above 10000 nM; to `CC(=O)N1CCCC(c2nc(Nc3cccc(C)c3)cc(-c3ccnnc3)n2)C1` (centres unmarked), 1000 to 10000 nM.
For `CC(=O)N1CCCC(c2nc(Nc3cccc(C)c3)cc(-c3cncnc3)n2)C1` (centres unmarked) the value was 1000 to 10000 nM; for `CC(=O)N1CCCC(c2nc(Nc3ccccc3)cc(-c3cncnc3)n2)C1` (centres unmarked), 1000 to 10000 nM.
